Patent publication US8697098B2, “Polymer conjugated protein micelles” (South Dakota State University, priority 2011, dated 2014)
Values after ≈ are worked out from the molar mass of the structure shown. Read-outs that look alike come from different tables or passages of the source.

Key:
[1] = cited from earlier work
[2] = tested on: NCl/ADR-RES drug resistant human ovarian cancer cells; experiment: In vitro cytotoxicity, MTT assay; format: cell-based
Protocol: On the fifth day cytotoxicity analysis was performed using an MTT assay. Data points represent average±SE (n=4).
On day 5 cytotoxicity analysis was measured using an MTT assay. Data points represent average±SE (n=4).
The cells were washed twice with ice cold phosphate buffer and replaced with fresh media. […] On day 5 cytotoxicity analysis was performed using an MTT assay.
On the fifth day cytotoxicity analysis was performed using the MTT assay.

[3] = cited from earlier work; remark: listed apart in the source
[4] = tested on: JC mouse breast cancer cells; experiment: In vivo biodistribution in allograft breast tumor mouse model; settings: i.v.; 3 hours after administration
Protocol: The tumor model was developed by subcutaneous injection of JC mouse breast cancer cells. […] Animals were sacrificed 3 hours after treatment administration. Tumor and organs were collected. Doxorubicin concentration in tumors and organs were determined using a fluorescence based isocratic HPLC method. […] Female nude mice (Charles River Laboratories, Wilmington, Mass.) were used in the study. JC mouse breast cancer cells (1×10^7 cells) were suspended in PBS and injected subcutaneously. […] After 3 hours, the mice were sacrificed and organs (liver, heart, lungs, spleen, brain and tumor) were collected and homogenized in 2 mL deionized water using a tissue homogenizer. After addition of 100 ng of daunorubicin (internal standard), tissue homogenates were lyophilized.
Dry tissues were weighed and extracted with 5 mL of methanol/chloroform mixture (65:35) using a shaker for 5 hours in the dark at room temperature. The extract was centrifuged at 13,000 rpm for 10 minutes at 4° C. The supernatant was evaporated under nitrogen gas and reconstituted in methanol/acetonitrile (50:50).

[5] = tested on: MCF-7 human breast cancer cells; experiment: In vitro cytotoxicity, MTT assay; format: cell-based; settings: MCF7, 120 h, doxorubicin 15.62 nM to 1000 nM, MTT on day 5
Protocol: […]. On day 5 cytotoxicity analysis was performed using an MTT assay. Data points represents average±SE (n=4). […].
The cells were washed twice with ice cold phosphate buffer and replaced with fresh media. Media was replaced for every 48 hours. At day 5, cytotoxicity analysis was performed using the MTT assay.

[6] = comparison surfactant / block copolymers; cited from earlier work

Row | doxorubicin accumulation in tumor [4] | SMILES | Log P ([1]; Table 3, cargo compound itself) | Log P [1] | IC50 ([2]; 96 h) [nM] | solubility in water ([3]; free compound) | solubility in water ([3]; free drug) [µg/mL] | IC50 ([2]; 120 h, doxorubicin 31.25 nM to 1000 nM, MTT on day 5, read-out: IC50) [nM] | IC50 [5] [nM] | critical micellar concentration (CMC) [6]
1 | – | COc1cc(/C=C/C(=O)/C=C(O)/C=C/c2ccc(O)c(OC)c2)ccc1O [Curcumin] | 2.5 | 2.5 | 104 | practically insoluble in water | 0.011 (≈ 0.0299 µM) | – | – | –
2 | no drug accumulation | COc1cccc2c1C(=O)c1c(O)c3c(c(O)c1C2=O)C[C@@](O)(C(=O)CO)C[C@@H]3O[C@H]1C[C@H](N)[C@H](O)[C@H](C)O1 [Doxorubicin] | – | – | – | practically insoluble in water | 0.015 (≈ 0.0276 µM) | 126 | 148 | –
3 | – | CCN(CC)c1ccc2nc3c4ccccc4c(=O)cc-3oc2c1 [Nile red] | 5 | – | – | practically insoluble in water | – | – | – | –
4 | – | CCCCCCCCCCCCOS(=O)(=O)[O-].[Na+] [sodium dodecyl sulfate] | – | – | – | – | – | – | – | about 2.304 g/L
